What was measured:
[1] = test system: Normal Human Breast Epithelial Cells; assay: In vitro cytotoxicity assay (trypan blue), normal breast cells; type: cell-based; details: for Cytoxicity (% Dead cells): Normal Human Breast Epithelial Cells
Method: (§1) Normal and cancerous human breast cells were plated at a density of ˜70,000-80,000 cells/well in 24 well plates. Each test compound was added to the cell media at the indicated concentration and incubated at 37° C. in a CO2 incubator for the indicated time. Following incubation, cells were harvested and exposed to trypan blue dye; dead cells were stained exclusively (living cells remained unstained) and counted.

[2] = test system: Normal and cancerous human breast cells; assay: In vitro cytotoxicity assay, selective toxicity to oncogenic cells relative to normal cells; type: cell-based; details: trypan blue cytotoxicity assay
Method: as §1

[3] = test system: MBA-MB231 Breast Cancer cells; assay: In vitro cytotoxicity assay (trypan blue), MBA-MB231; type: cell-based, human; details: for Cytoxicity (% Dead cells): MBA-MB231 Breast Cancer cells, 72 h
Method: as §1

[4] = test system: MCF-7 Breast Cancer cells; assay: In vitro cytotoxicity assay (trypan blue), MCF-7; type: cell-based, human; details: for Cytoxicity (% Dead cells): MCF-7 Breast Cancer cells
Method: as §1

[5] = Body weight and survival of C33A tumor-bearing SCID mice; type: in vivo, CB17 SCID/SCID mice
Method: (§2) C33A cells were injected subcutaneously into the flanks of the female CB17 SCID/SCID mice. Each mouse was inoculated with a suspension of 2×10^6 tumor cells per 100 μl on day 0. There were ten mice in each treatment group, i.e., in the control group, the positive control group and the Compound 138T group.
(§3) Treatments started on day fourteen after C33A cells transplantation. Compound 138T was administered intravenously once daily for five consecutive days at a dose of 8 mg/kg. a solution of Compound 138T was prepared fresh daily in a vehicle solution of 5% Dextrose (Abbot Laboratories, QC, Canada) and 2% Tween20 (Sigma, St. Louis, Mo., USA). The control group was treated with vehicle alone. The injection volume for both, the Compound 138T treated group and the control group was 150 μl. The positive control group was treated once every 3 days for five times with cisplatin (Sigma, St. Louis, Mo., USA) at a dose of 4 mg/kg. Cisplatin was formulated in PBS on each day of the injection and was administered intraperitoneally in an injection volume of 80 μl.
(§4) The mice were weighed and the tumors were measured on day 13 and every 2 days after the treatment commenced. Observation continued for 40 days after initial tumor implantation. The changes in body weight and in the calculated tumor volume were plotted (FIG. 2 to 4).

[6] = test system: C33A cervical carcinoma cells; assay: Cell viability, cellular ATP levels (ViaLight), C33A; type: cell-based, human; details: 72 hours; for effect on ATP levels in C33A cancer cell line compared with HMEC and MRC-5 normal cells (FIG. 1): 0.05 μM
From the text: (§5) C33A cervical carcinoma cells, Mrc-5 normal lung fibroblasts, PC-3 human prostatic carcinoma cell line, OVCAR-3 human ovarian carcinoma cal line, H460 large cell lung cancer cell line, A549 human lung carcinoma cell line, H1299 human non-small cell lung cancer cells, MCF-7 human breast cancer cell line, SW-480 human adenocarcinoma cell line, B16-F1 mouse melanoma cell line (American Type Culture Collection, Manassas, Va. USA), HMEC normal mammary epithelial cells (Clonetics San Diego, Calif., USA) and ADR-RES human breast cancer cell line (NCI, MD, USA) were cultured in the media recommended by the American Type Culture Collection. The cells lines were plated in 96-well microtiter plates (PerkinElmer Life Sciences Inc, Boston, Mass., USA) at a density that allowed them to reach confluence after 4 days of growth. One day after plating, the cells were treated with various concentrations of Compound 138T or Compound 139T. Stock solutions of the compounds were prepared in dimethyl sulfoxide (Sigma-Aldrich Inc., St. Louis, Mo., USA), diluted in media and then added to the cells. The total dimethyl sulfoxide on the cells was 1%. After 3 days of incubation the ATP levels in the cells were quantified using the luminescent ViaLight detection system (Bio-Whittaker, Md., USA). The results were plotted relative to untreated control cells, which were set at 100 (FIG. 1).

[7] = test system: MCF-7 human breast cancer cell line; assay: Cell viability, cellular ATP levels (ViaLight), MCF-7; type: cell-based; details: MCF7, Cell line MCF-7, Breast, 72 hours, read-out: IC50 of Compound 138T
From the text: as §5

[8] = test system: human cervical cancer C33A; assay: Antitumor activity in vivo, C33A tumors in SCID mice (tumor volume); design: species or system CB17 SCID/SCID mice
Method: The C33A human cervical cancer cells were maintained in RPMI (Hyclone, Utah, USA) supplemented with 10% inactivated fetal bovine serum (Bio-Whittaker, Md., USA) and 1% penicillin-streptomycin-L-Glutamine (Gibco, N.Y., USA), under 5% CO2 at 37° C., and passaged twice a week. The cells were grown at a confluency lower than 70% and than collected with Trypsin (Bio-Whittaker, Md., USA). Cells were then centrifuged and washed two time in phosphate buffer solution (PBS) and resuspended in PBS at 2×10^6 cells per 100 μl. Viability was examined by staining with trypan blue (Gibco, N.Y., USA) and only flasks with cell viability greater than 95% were used for in vivo studies.
as §2, §3, §4

[9] = test system: PC-3 human prostatic carcinoma cell line; assay: Cell viability, cellular ATP levels (ViaLight), PC-3; type: cell-based; details: Cell line PC-3, Prostate, 72 hours, read-out: IC50 of Compound 138T
From the text: as §5

[10] = test system: B16-F1 mouse melanoma cell line; assay: Cell viability, cellular ATP levels (ViaLight), B16-F1; type: cell-based; details: Cell line B16-F1, Murine Melanoma, 72 hours, read-out: IC50 of Compound 138T
From the text: as §5

[11] = test system: A549 human lung carcinoma cell line; assay: Cell viability, cellular ATP levels (ViaLight), A549; type: cell-based; details: Cell line A549, NSCL-aden, 72 hours, read-out: IC50 of Compound 138T
From the text: as §5

[12] = test system: HMEC normal mammary epithelial cells; assay: Cell viability, cellular ATP levels (ViaLight), HMEC; type: cell-based; details: 72 hours
From the text: as §5

[13] = test system: H460 large cell lung cancer cell line; assay: Cell viability, cellular ATP levels (ViaLight), H460; type: cell-based; details: Homo sapiens, NCI-H460, Cell line H460, NSCL-LC, 72 hours, read-out: IC50 of Compound 138T
From the text: as §5

[14] = test system: H1299 human non-small cell lung cancer cells; assay: Cell viability, cellular ATP levels (ViaLight), H1299; type: cell-based; details: NCI-H1299, Cell line H1299, NSCL-LC, 72 hours, read-out: IC50 of Compound 138T
From the text: as §5

[15] = test system: OVCAR-3 human ovarian carcinoma cal line; assay: Cell viability, cellular ATP levels (ViaLight), OVCAR-3; type: cell-based; details: Cell line OVCAR-3, Ovary, 72 hours, read-out: IC50 of Compound 138T
From the text: as §5

[16] = test system: SW-480 human adenocarcinoma cell line; assay: Cell viability, cellular ATP levels (ViaLight), SW-480; type: cell-based; details: SW480, Cell line SW-480, Colorectal, 72 hours, read-out: IC50 of Compound 138T
From the text: as §5

[17] = test system: ADR-RES human breast cancer cell line; assay: Cell viability, cellular ATP levels (ViaLight), ADR-RES; type: cell-based; details: Cell line NCI/ADR-RES, Breast (Mutli-drug resistant), 72 hours, read-out: IC50 of Compound 138T
From the text: as §5

[18] = 8 mg/kg intravenously once daily for five consecutive days from day fourteen

Molecule: CCCCC1CCCCCCc2cc1c(/C=C1\N=C(c3ccc[nH]3)C=C1OC)[nH]2 (stereo not shown) [Butyl-meta-cycloheptylprodiginine, 2-Butyl-11-((3-methoxy-5-(1H-pyrrol-2-yl)-2H-pyrrol-2-ylidene)methyl)-10-azabicyclo[7.2.1]dodeca-9(12),11-diene]
- cell death in normal cells ([1]; 0.25 mM concentration (Table 10)): 5%
- Cytoxicity (% Dead cells) ([1]; 0.25 μM, 72 h): 5%
- Cytoxicity (% Dead cells) ([1]; 1.0 μM, 72 h): 5%
- Cytoxicity (% Dead cells) ([1]; 2.0 μM, 72 h): 15%
- selective toxicity to breast cancer cells relative to normal human breast epithelial cells [2]: selectively killed the breast cancer cells
- cell death in cancer cells ([3]; 0.25 mM concentration (Table 10), second cancer cell value, MBA-MB231 in Table 10): 64%
- Cytoxicity (% Dead cells) ([3]; 0.25 μM): 64%
- Cytoxicity (% Dead cells) ([3]; 1.0 μM): 100%
- Cytoxicity (% Dead cells) ([3]; 2.0 μM): 100%
- cell death in cancer cells ([4]; 0.25 mM concentration (Table 10), first cancer cell value, MCF-7 in Table 10): 70%
- Cytoxicity (% Dead cells) ([4]; 0.25 μM, 72 h): 70%
- Cytoxicity (% Dead cells) ([4]; 1.0 μM, 72 h): 100%
- Cytoxicity (% Dead cells) ([4]; 2.0 μM, 72 h): 100%

Molecule: Ethyl-meta-cyclononylprodiginine
- Cytoxicity (% Dead cells) ([1]; 0.2 μM, 24 h): 10%
- Cytoxicity (% Dead cells) ([1]; 1.0 μM, 24 h): 9%
- Cytoxicity (% Dead cells) ([1]; 2.0 μM, 24 h): 15%
- Cytoxicity (% Dead cells) ([4]; 0.2 μM, 24 h): 45%
- Cytoxicity (% Dead cells) ([4]; 1.0 μM, 24 h): 62%
- Cytoxicity (% Dead cells) ([4]; 2.0 μM, 24 h): 65%

Molecule: N.N.[Cl][Pt][Cl] [cisplatin]
- weight loss ([5]; 4 mg/kg intraperitoneally once every 3 days for five times, day 29): 28%
- mice died in treated group ([5]; 4 mg/kg intraperitoneally once every 3 days for five times, days 29 and 32, ten mice per group): Two

Molecule: CCCCc1cc(C)c(C=C2N=C(c3ccc[nH]3)C=C2OC)[nH]1 [Compound 139T, 5′-(5-Butyl-3-methyl-1H-pyrrol-2-ylmethylene)-4′-methoxy-1H,5′H-[2,2′]bipyrrolyl]
- effect on ATP levels in C33A cancer cell line compared with HMEC and MRC-5 normal cells (FIG. 1) [6]: significantly more effective at lowering ATP levels in C33A cancer cell line

Molecule: COC1=CC(c2ccc[nH]2)=NC1=Cc1[nH]c(C)cc1C [Compound 138T, 5′-(3,5-Dimethyl-1H-pyrrol-2-ylmethylene)-4′-methoxy-1H,5′H-[2,2′]bipyrrolyl]
- IC50 [7]: 70 nM
- effect on human cervical tumors implanted in SCID mice ([8]; 8 mg/kg intravenously once daily for five consecutive days): significantly reduces the human cervical tumors implanted in SCID mice
- tumor volume curve versus control, values in standard error of the mean (FIG. 4) [8, 18]: significantly different from control curve for a longer period of time, until day 39
- tumor volume versus control, values expressed in 95% confidence interval (FIG. 3) [8, 18]: significantly less than control until day 29
- tumor volume curve compared with the cisplatin treated group ([8]; 8 mg/kg intravenously once daily for five consecutive days, cisplatin 4 mg/kg intraperitoneally): follows the tumor volume curve of the cisplatin treated group until day 39
- effect on ATP levels in C33A cancer cell line compared with HMEC and MRC-5 normal cells (FIG. 1) [6]: significantly more effective at lowering ATP levels in C33A cancer cell line
- IC50 ([6]; Homo sapiens, C-33-A, Cell line C3AA, Cervix, ATP levels, read-out: IC50 of Compound 138T): 30 nM
- IC50 [9]: 50 nM
- IC50 [10]: 20 nM
- IC50 [11]: 80 nM
- weight loss ([5]; 8 mg/kg intravenously once daily for five consecutive days, day 22): 10%
- effect on ATP levels in cancer cell lines compared with normal HMEC cell line ([12]; ten cancer cell lines): significantly more effective at lowering ATP levels in all the cancer cell lines
- IC50 ([12]; Homo sapiens, Cell line HMEC, Normal Breast, ATP levels, read-out: IC50 of Compound 138T): 2000 nM
- IC50 [13]: 60 nM
- IC50 [14]: 70 nM
- IC50 [15]: 30 nM
- IC50 [16]: 50 nM
- IC50 [17]: 70 nM
